Laboratory results published in US20210207188A1, “BETA-LACTAM COMPOUNDS AND METHODS OF USE THEREOF” (priority 2018, published 2021).

What was measured:
[1] = test system: clinical isolates (CPE, Carbapenemase Producing Enterobacteriaceae, and Non CPE strains); experiment: Selectivity of probes with clinical isolates in lysis buffer (visible light and UV light); format: cell-based; conditions: probe 10 μM
Description: The selectivity of some probes were evaluated with clinical isolates. The carbapenemases presence in the bacteria (CPE, i.e., Carbapenemase Producing Enterobacteriaceae) were verified by PCR (Polymerase Chain Reaction). 1 μL loop-full of each test bacterium from overnight-cultured LB agar plate were added to 100 μL PBS buffer with 0.5% CHAPS. The bacteria were vortexed to give a homogenious suspension and incubated for 15 min. To each of the bacteria-lysis buffer mixture (20 μL) were added quick test reagents (Probes (Final concentration=10 μM), CarbaNP solution A and CarbaNP solution B). CarbaNP solutions A and B were freshly prepared according to CLSI protocol, where solution A contains 10 mM zinc sulphate and phenol red buffer at pH=7.8±0.1 and solution B was a mixture of solution A with 3 mg/mL imipenem.

OXA-48 = target: T1, OXA-48 (Klebsiella pneumoniae, UniProt Q6XEC0); format: biochemical; conditions: for fluorescence signal over time: probe 2.0 μM (MCW-011 0.5 μM), PBS
T1 construct: His tag; made in house; host or cells: Escherichia coli
Description: (§1) Recombinant his-tagged beta-lactamases, including NDM-1, IMP-1, KPC-2, VIM-2 and OXA-48 were overexpressed in Escherichia coli. The enzymes were purified using HisTrap Ni-NTA columns. AmpC and TEM were purchased from commercial sources.
(§2) The fluorescence-based activity assays were performed in phosphate-buffer saline. The concentration of some of the compounds were determined by boiling the compounds in PBS solution until fluorescence signal was saturated. The amount of released fluorophore was quantified via fluorescence spectroscopy by comparing to a corresponding calibration curve.

NDM-1 = target: T2, NDM-1 (Klebsiella pneumoniae, UniProt C7C422); format: biochemical; conditions: for fluorescence signal over time: probe 2.0 μM (MCW-002 1.1 μM, MCW-011 0.5 μM), PBS
T2 construct: His tag; made in house; host or cells: Escherichia coli
Description: as §1, §2

VIM-2 = target: T3, VIM-2 (Escherichia coli, UniProt Q5U7L7); format: biochemical; conditions: for fluorescence signal over time: probe 2.0 μM (MCW-011 0.5 μM), PBS
T3 construct: His tag; made in house; host or cells: Escherichia coli
Description: as §1, §2

IMP-1 = target: T4, IMP-1 (Serratia marcescens, UniProt P52699); format: biochemical; conditions: IMP-1; for fluorescence signal over time: probe 2.0 μM (MCW-002 1.1 μM, MCW-011 0.5 μM), PBS
T4 construct: His tag; made in house; host or cells: Escherichia coli
Description: as §1, §2

KPC-2 = target: T5, KPC-2 (Klebsiella pneumoniae, UniProt Q9F663); format: biochemical; conditions: for fluorescence signal over time: probe 2.0 μM (MCW-002 1.1 μM, MCW-011 0.5 μM), PBS
T5 construct: His tag; made in house; host or cells: Escherichia coli
Description: as §1, §2

TEM = target: T6, TEM (Escherichia coli, UniProt P62593); experiment: Activity of beta-lactamases towards probes (fluorescence-based activity assay), TEM; format: biochemical; conditions: probe 2.0 μM (MCW-002 1.1 μM, MCW-011 0.5 μM), PBS
T6 construct: purchased
Description: as §1, §2

AmpC = experiment: Activity of beta-lactamases towards probes (fluorescence-based activity assay), AmpC; format: biochemical; conditions: probe 2.0 μM (MCW-002 1.1 μM, MCW-011 0.5 μM), PBS
Description: as §1, §2

[2] = test system: beta-lactamases, including NDM-1, IMP-1, VIM-2, KPC-2, OXA-48, AmpC, and TEM; experiment: Fluorescence-based activity assay, whole panel of tested beta-lactamases; format: biochemical; conditions: for specificity among the tested beta-lactamases: conclusion from fluorescence signals; for changes in the fluorescence signal with the tested beta-lactamases: probe 2.0 μM, MCW-010 within 20 minutes
Description: as §1, §2
Among the tested beta-lactamases, NDM-1, IMP-1, VIM-2, KPC-2 and OXA-48 are carbapenemases, whereas AmpC and TEM are not. Nitrocefin was used as a control to test the activity of the beta-lactamases because it can be hydrolyzed by a wide range of beta-lactamases.

Compound	fluorescence signal over time (TEM)	fluorescence signal over time (NDM-1)	fluorescence signal over time (IMP-1)	fluorescence signal over time (KPC-2)	fluorescence signal over time (AmpC)	specificity among the tested beta-lactamases [2]	fluorescence signal over time (VIM-2)	changes in the fluorescence signal with the tested beta-lactamases [2]	also measured
COc1ccc(-c2c3ccc(=O)cc-3oc3cc(OCc4ccc(OC/C=C/C5=C(C(=O)O)N6C(=O)[C@H]([C@@H](C)O)[C@H]6C5)c(OC)c4)ccc23)c(C)c1 [MCW-004, (5R,6S)-6-((R)-1-hydroxyethyl)-3-((E)-3-(2-methoxy-4-(((9-(4-methoxy-2-methylphenyl)-3-oxo-3H-xanthen-6-yl)oxy)methyl)phenoxy)prop-1-en-1-yl)-7-oxo-1-azabicyclo[3.2.0]hept-2-ene-2-carboxylic acid]									signal with panel of clinical isolates ([1]; incubated for 15 min): observable fluorogenic signal in CPE strains but not the Non CPE strains; signal with panel of clinical isolates ([1]; incubated for 120 min): observable fluorogenic signal in CPE strains but not the Non CPE strains; 3S/k (detection limit of the probe towards the carbapenemase) (OXA-48): 24.9 pM; Kcat (OXA-48; Michaelis-Menten kinetics): 10.2 ± 0.74 s⁻¹; Km (OXA-48; Michaelis-Menten kinetics): 1.09 ± 0.12 µM; 3S/k (detection limit of the probe towards the carbapenemase) (NDM-1): 0.546 pM; Kcat (NDM-1; Michaelis-Menten kinetics): 23.5 ± 0.98 s⁻¹; Km (NDM-1; Michaelis-Menten kinetics): 1.57 ± 0.16 µM; 3S/k (detection limit of the probe towards the carbapenemase) (VIM-2): 5.37 pM; Kcat (VIM-2; Michaelis-Menten kinetics): 2.28 ± 0.07 s⁻¹; Km (VIM-2; Michaelis-Menten kinetics): 1.88 ± 0.13 µM; 3S/k (detection limit of the probe towards the carbapenemase) (IMP-1): 0.328 pM; Kcat (IMP-1; Michaelis-Menten kinetics): 47.3 ± 3.34 s⁻¹; Km (IMP-1; Michaelis-Menten kinetics): 1.74 ± 0.29 µM; 3S/k (detection limit of the probe towards the carbapenemase) (KPC-2): 5.28 pM; Kcat (KPC-2; Michaelis-Menten kinetics): 2.36 ± 0.22 s⁻¹; Km (KPC-2; Michaelis-Menten kinetics): 3.41 ± 0.59 µM
CC[Si](CC)(CC)O[C@H](C)[C@H]1C(=O)N2C(C(=O)O)=C(/C=C/COc3ccc(COc4ccc5nc6ccc(=O)cc-6oc5c4)cc3OC)C[C@H]12 [MCW-002, (5R,6S)-3-((E)-3-(2-methoxy-4-(((3-oxo-3H-phenoxazin-7-yl)oxy)methyl)phenoxy)prop-1-en-1-yl)-7-oxo-6-((R)-1-((triethylsilyl)oxy)ethyl)-1-azabicyclo[3.2.0]hept-2-ene-2-carboxylic acid]	minimal changes in the fluorescent signal	pronounced increase in the fluorescent signal	pronounced increase in the fluorescent signal	minimal changes in the fluorescent signal	minimal changes in the fluorescent signal	specific for NDM-1 and IMP-1, especially NDM-1			relative rate of hydrolysis reaction (IMP-1): slower compared to the reaction with NDM-1
COc1ccc(-c2c3ccc(=O)cc-3oc3cc(OCc4ccc(OC/C=C/C5=C(C(=O)O)N6C(=O)[C@H]([C@@H](C)O)[C@H]6S5)c(OC)c4)ccc23)c(C)c1 [MCW-011, (5R,6S)-6-((R)-1-hydroxyethyl)-3-((E)-3-(2-methoxy-4-(((9-(4-methoxy-2-methylphenyl)-3-oxo-3H-xanthen-6-yl)oxy)methyl)phenoxy)prop-1-en-1-yl)-7-oxo-4-thia-1-azabicyclo[3.2.0]hept-2-ene-2-carboxylic acid]	minimal changes in the fluorescent signal	increase in the fluorescent signal	increase in the fluorescent signal	increase in the fluorescent signal	minimal changes in the fluorescent signal	specific for carbapenemases	increase in the fluorescent signal		fluorescence signal over time (OXA-48): increase in the fluorescent signal
C[C@@H](O)[C@H]1C(=O)N2C(C(=O)O)=C(c3ccc(COc4ccc5nc6ccc(=O)cc-6oc5c4)cc3[N+](=O)[O-])C[C@H]12 [MCW-010, (5R,6S)-6-((R)-1-hydroxyethyl)-3-(2-nitro-4-(((3-oxo-3H-phenoxazin-7-yl)oxy)methyl)phenyl)-7-oxo-1-azabicyclo[3.2.0]hept-2-ene-2-carboxylic acid]								did not exhibited changes in the fluorescence signal	
COc1cc(COc2ccc3nc4ccc(=O)cc-4oc3c2)ccc1OC/C=C/C1=C(C(=O)N(C)O)N2C(=O)[C@H]([C@@H](C)O)[C@H]2C1 [MCW-006, (5R,6S)-N-hydroxy-6-((R)-1-hydroxyethyl)-3-((E)-3-(2-methoxy-4-(((3-oxo-3H-phenoxazin-7-yl)oxy)methyl)phenoxy)prop-1-en-1-yl)-N-methyl-7-oxo-1-azabicyclo[3.2.0]hept-2-ene-2-carboxamide]								unreactive to the tested beta-lactamases	
COC(=O)C1=C(/C=C/COc2ccc(COc3ccc4nc5ccc(=O)cc-5oc4c3)cc2OC)C[C@@H]2[C@@H]([C@@H](C)O)C(=O)N12 [MCW-003, Methyl (5R,6S)-6-((R)-1-hydroxyethyl)-3-((E)-3-(2-methoxy-4-(((3-oxo-3H-phenoxazin-7-yl)oxy)methyl)phenoxy)prop-1-en-1-yl)-7-oxo-1-azabicyclo[3.2.0]hept-2-ene-2-carboxylate]								unreactive to the tested beta-lactamases	
C[C@@H](O)[C@H]1C(=O)N2C(C(=O)O)=C(c3ccc(COc4ccc5nc6ccc(=O)cc-6oc5c4)cc3)C[C@H]12 [MCW-008, (5R,6S)-6-((R)-1-hydroxyethyl)-7-oxo-3-(4-(((3-oxo-3H-phenoxazin-7-yl)oxy)methyl)phenyl)-1-azabicyclo[3.2.0]hept-2-ene-2-carboxylic acid]	minimal changes in the fluorescent signal	increase in the fluorescent signal	increase in the fluorescent signal	increase in the fluorescent signal	minimal changes in the fluorescent signal	specific for carbapenemases	increase in the fluorescent signal		fluorescence signal over time (OXA-48): increase in the fluorescent signal
COc1ccc(-c2c3ccc(=O)cc-3oc3cc(OCc4ccc(C5=C(C(=O)O)N6C(=O)[C@H]([C@@H](C)O)[C@H]6C5)cc4)ccc23)c(C)c1 [MCW-009, (5R,6S)-6-((R)-1-hydroxyethyl)-3-(4-(((9-(4-methoxy-2-methylphenyl)-3-oxo-3H-xanthen-6-yl)oxy)methyl)phenyl)-7-oxo-1-azabicyclo[3.2.0]hept-2-ene-2-carboxylic acid]		increase in the fluorescent signal	increase in the fluorescent signal	increase in the fluorescent signal			increase in the fluorescent signal		time until hydrolysis reaction complete (fluorescent signal plateaued) (NDM-1; probe 2.0 μM): > 20 min; time until hydrolysis reaction complete (fluorescent signal plateaued) (VIM-2; probe 2.0 μM): > 20 min; time until hydrolysis reaction complete (fluorescent signal plateaued) (IMP-1; probe 2.0 μM): > 20 min; time until hydrolysis reaction complete (fluorescent signal plateaued) (KPC-2; probe 2.0 μM): > 20 min
